In EPA's ToxValDB 9.5:
Values after ≈ are worked out from the molar mass of the structure shown. Values joined by “and” are separate entries in the source; they are usually repeats but may differ in a detail not shown here. Identical values can stand only once.

Legend:
Mus musculus [1] = details: for LC50 / LD50: acute
Cavia porcellus = details: subchronic, inhalation, Guinea Pig
Rattus norvegicus [2] = tested on: Rattus norvegicus
Rattus norvegicus [3] = details: subchronic; duration: 90 days; oral; gavage; M/F; Sprague-Dawley; Whole Body Effects
Mus musculus [4] = test: LC100; higher = less toxic; details: acute; inhalation
Rattus norvegicus [5] = details: oral, M/F
Monkey [6] = details: subchronic; duration: 3 months; inhalation; Cynomolgus
Cavia sp. = details: acute; inhalation; FTD Hartley
Mus musculus [7] = test: LD10; higher = less toxic; details: acute; oral; BALB/cAnCr
Rattus norvegicus [8] = details: chronic; duration: 2 years; oral; diet; Liver: Lesions
Rattus norvegicus [9] = details: repeat dose other; oral
Tytonidae = details: oral
Monkey [10] = details: subchronic; duration: 55 days; oral; diet; M; Squirrel Monkey; neurological
Rattus norvegicus [11] = details: chronic; duration: 2 years; oral; diet; M/F; Carworth Farms E; hepatic
[12] = subchronic, duration: 35 days, inhalation, ICR
[13] = subchronic, duration: 90 days, oral, gavage, Albino- not specified
[14] = subchronic, reduced body weight
[15] = developmental, duration: 13 days, oral, gavage, New Zealand
[16] = reproduction developmental, duration: 13 days, oral, gavage, F, New Zealand
[17] = developmental, duration: 10 days, oral, gavage, Crj:CD
[18] = chronic, duration: 2 years, diet, liver lesions

Q: How did the NOAEL (Oryctolagus sp.; subchronic, duration: 7 weeks, inhalation) turn out when `CCOCC` [Diethyl ether] was run?
A: 6.2 mg/L

Q: What about the LC50 (Mus musculus [1]; inhalation) of the same compound?
A: 130 µg/mL (≈ 1750 µM)

Q: And the LC50 (Mus musculus [1]; inhalation, C3H/HeCr)?
A: 98200 mg/m3 and 94900 mg/m3

Q: What about the LC50 (Mus musculus [1]; inhalation, C57BL/6) of the same compound?
A: 199000 mg/m3 and 182000 mg/m3

Q: And the LD50 (Mus musculus [1]; injection, Intraperitoneal)?
A: 2420 mg/kg

Q: What about the LD50 (Mus musculus [1]; injection, intravenous) of the same compound?
A: 996 mg/kg

Q: And the LOAEL (Mus musculus [1]; [12])?
A: 30 mg/L

Q: What about the NOAEL (Mus musculus [1]; [12]) of the same compound?
A: 3 mg/L

Q: And the NOAEL (Cavia porcellus; duration: 7 weeks)?
A: 6.2 mg/L

Q: What about the LOAEL (Cavia porcellus; duration: 35 days) of the same compound?
A: 30 mg/L

Q: What about the NOAEL (Cavia porcellus; duration: 35 days) of the same compound?
A: 3 mg/L

Q: And the LC50 (Rattus norvegicus [2]; acute, oral, Sprague-Dawley)?
A: 1710 mg/kg

Q: And the NOAEL (Rattus norvegicus [2]; subchronic, duration: 7 weeks, inhalation, Wistar)?
A: 6.2 mg/L

Q: And the NOAEL (Rattus norvegicus [2]; subchronic, duration: 35 days, inhalation, Sprague-Dawley)?
A: 30 mg/L

Q: What about the LOAEL (Rattus norvegicus [2]; [13]) of the same compound?
A: 2000 mg/kg-day

Q: And the NOAEL (Rattus norvegicus [2]; [13])?
A: 500 mg/kg-day

Q: And the NOAEL (Rattus norvegicus [3])?
A: 500 mg/kg-day

Q: What about the LC100 (Mus musculus [4]) of the same compound?
A: 128 mg/L

Q: What about the LOAEL (Rattus norvegicus [5]; [14]) of the same compound?
A: 2000 mg/kg-day

Q: And the NOAEL (Rattus norvegicus [5]; [14])?
A: 500 mg/kg-day

Q: With `[C-]#[O+]` [Carbon monoxide] as the compound, how does the LOAEL (Monkey [6]) read?
A: 115 mg/m3

Q: And the LC50 (Mus musculus [1]; inhalation, NIH/Nmri Swiss albino)?
A: 2070 mg/m3 and ≥ 1830 mg/m3 and ≤ 2240 mg/m3

Q: What about the LOAEL (Mus musculus [1]; reproduction developmental, duration: 7 days, inhalation, CD1, generation: F1) of the same compound?
A: 143 mg/m3

Q: And the LC50 (Cavia sp.)?
A: 2070 mg/m3 and ≥ 1830 mg/m3 and ≤ 2240 mg/m3

Q: `CNC=O` [N-Methylformamide] was tested. Which LD10 (Mus musculus [7]) did it give?
A: 1800 mg/kg

Q: And the LOAEL (Oryctolagus sp.; [15])?
A: 50 mg/kg-day

Q: What about the NOAEL (Oryctolagus sp.; [15]) of the same compound?
A: 10 mg/kg-day

Q: And the LOAEL (Oryctolagus sp.; [16])?
A: 50 mg/kg-day

Q: What about the NOAEL (Oryctolagus sp.; [16]) of the same compound?
A: 10 mg/kg-day

Q: And the LD50 (Mus musculus [1]; oral, BALB/cAnCr)?
A: 2600 mg/kg

Q: And the LD50 (Rattus norvegicus [2]; acute, oral)?
A: 4000 mg/kg

Q: And the LOAEL (Rattus norvegicus [2]; [17])?
A: 75 mg/kg-day

Q: What about the NOAEL (Rattus norvegicus [2]; [17]) of the same compound?
A: 10 mg/kg-day

Q: And the NOAEL (Rattus norvegicus [2]; reproduction developmental, duration: 10 days, inhalation, F, Crl: CD BR)?
A: 36.2 mg/m3

Q: What about the NOAEL (Rattus norvegicus [2]; short-term, duration: 2 weeks, inhalation, M, Crl:CD(SD)) of the same compound?
A: 0.12 mg/L

Q: Which NOAEL (Rattus norvegicus [8]) does the source give for `ClC1=C(Cl)[C@]2(Cl)[C@@H]3[C@@H]4C[C@@H]([C@H]5O[C@@H]45)[C@@H]3[C@@]1(Cl)C2(Cl)Cl` [Dieldrin] here?
A: 0.005 mg/kg-day

Q: What about the LOAEL (Rattus norvegicus [9]) of the same compound?
A: 0.2 mg/kg-day

Q: What about the NOAEL (Rattus norvegicus [9]) of the same compound?
A: 0.02 mg/kg-day

Q: What about the NOAEL (Tytonidae) of the same compound?
A: 0.077 mg/kg-day

Q: And the NOAEL (Monkey [10])?
A: 0.01 mg/kg-day

Q: What about the NOAEL (Rattus norvegicus [11]) of the same compound?
A: 0.005 mg/kg-day

Q: What about the LOAEL (Rattus norvegicus [5]; [18]) of the same compound?
A: 0.05 mg/kg-day

Q: What about the NOAEL (Rattus norvegicus [5]; [18]) of the same compound?
A: 0.005 mg/kg-day
